Source: article PMC8954350, “Non-Canonical Cannabinoid Receptors with Distinct Binding and Signaling Properties in Prostate and Other Cancer Cell Types Mediate Cell Death” (International Journal of Molecular Sciences, 2022)
“Also recorded” adds a separate entry of the source. Read-outs that look alike come from different tables or passages of the source.

Experiments:
DU-145 cells = test: LDH cytotoxicity, DU-145 cells; type: cell-based, human; conditions: 24 h; for LDH release: 10 μM; for increase in LDH release: 50 μM
Protocol: DU-145 cells were seeded at a density of 130 × 10^3 cells/well in 6-well plates and maintained in an incubator at 37 °C with 5% CO2 for 24 h. […] Treated cells were incubated for an additional 24 h, followed by quantification of LDH release. LDH released from damaged or dying cells oxidizes lactate to produce NADH which then reacts with a water-soluble tetrazolium salt (WST) reagent to produce a yellow-colored product. The intensity of the yellow-colored product was detected with an OD reading at 450 nm (quantified by a BioTek microplate reader interfaced with SoftMax Pro 5.4.5 software; Winooski, VT, USA) and was directly proportional to the amount of LDH released. Percent cytotoxicity was calculated according to the manufacturer’s protocol as the following: % Cytotoxicity=OD450 Supernatant/Supernatant+Lysate

[1] = system: CBRs expressed in PC-3 membranes; test: [^3H]WIN-55,212-2 competitive binding screen, PC-3 membranes; set-up: species or system human
Protocol: (§1) The assay was conducted as previously detailed. […] All binding reactions were conducted in triplicate, in a final volume of 1 mL, and, following mixing, were incubated for 20 min in a 37 °C water bath to achieve equilibrium. After incubation, reactions were terminated by rapid vacuum filtration through Whatman GF/B glass fiber filters (Brandel; Gaithersburg, MD, USA), followed by three washes of 4 mls of ice-cold filtration buffer (50 mM Tris, pH 7.4, and 0.05% bovine serum albumin). Samples were punched out from filter papers into scintillation vials, to which 4 mls of ScintiverseTM-BDR cocktail scintillation fluid (Fisher Scientific; Hampton, NH, USA) was added. Filters were incubated at room temperature for 24 h in scintillation fluid, vortexed, and radioactivity (measured as DPMs) was quantified via a liquid scintillation spectrophotometer (Tri Carb 2100 TR Liquid Scintillation Analyzer, Packard Instruments, Meriden, CT, USA).
(§2) These experiments were conducted to screen well-characterized cannabinoid ligands with high affinity for canonical CB1 and/or CB2Rs for binding to CBRs expressed in prostate cancer cells lines, as detailed in [33]. […] All binding reactions were conducted in triplicate, in a final volume of 1 mL, and, following mixing, were incubated for 20 min in a 37 °C water bath to achieve equilibrium. After incubation, reactions were terminated by rapid vacuum filtration and processed for radioactivity, as detailed in Section 4.5.1.

[2] = system: CBRs expressed in DU-145 membranes; type: binding, human
Protocol: as §1, §2

[3] = system: CBRs expressed in PC-3 membranes; test: [^35S]GTPγS binding, PC-3 membranes; type: biochemical, human; conditions: 10 μM
Protocol: [^35S]GTPγS binding experiments were conducted to examine G protein modulation by cannabinoids in prostate cancer cell lines DU-145 and PC-3, as detailed previously. Briefly, CHO-hCB2 (50 μg), PC3 (100 μg), or DU-145 (100 μg) membrane homogenates were incubated with a single receptor-saturating concentration (10^−5 M) of cannabinoid ligands to be examined and 0.1 nM [^35S]GTPγS in incubation buffer (20 mM HEPES buffer, pH 7.4, 10 μM GDP, 100 mM NaCl, 0.1% bovine serum albumin, and 10 mM MgCl2). Non-specific binding was defined as radioactivity remaining in the presence of 10 μM of non-radioactive GTPγS and subtracted from total binding to determine specific [^35S]GTPγS binding. All binding reactions were conducted in triplicate, in a final volume of 1 mL, and, following mixing, were incubated for 30 min at 30 °C. After incubation, reactions were terminated by rapid vacuum filtration through Whatman GF/B glass fiber filters (Brandel; Gaithersburg, MD, USA), followed by three washes of 4 mls of ice-cold filtration buffer (50 mM Tris, pH 7.4, and 0.05% bovine serum albumin). Samples were punched out from filter papers into scintillation vials, to which 4 mls of ScintiverseTM-BDR cocktail scintillation fluid (Fisher Scientific; Hampton, NH, USA) was added. Filters were incubated at room temperature for 24 h in scintillation fluid, vortexed, and radioactivity (measured as DPMs) was determined via a liquid scintillation spectrophotometer (Tri Carb 2100 TR Liquid Scintillation Analyzer, Packard Instruments, Meriden, CT, USA).

[4] = system: CBRs expressed in PC-3 cells; type: cell-based, human
Protocol: (§3) These studies were conducted to determine the effect of chronic exposure of PC-3 and DU-145 cells to cannabinoid ligands with high affinity for non-canonical CBRs on receptor expression. PC-3 or DU-145 cells were seeded into T25 flasks at a density of 1.6 × 10^6 cells in normal medium and cultured at 37 °C with 5% CO2 for 24 h. Following overnight seeding, culture media was aspirated and replaced with serum-free medium containing vehicle or a receptor-saturating concentration (10 μM) of each cannabinoid ligand to be tested. Cells were subsequently cultured at 37 °C with 5% CO2 for an additional 48 h. […] Cells were then centrifuged at 1200 rpm for 10 min, and pellets were stored in −80 °C until future use.
(§4) All binding reactions were conducted in triplicate, in a final volume of 1 mL, and following mixing were incubated for 20 min in a 37 °C water bath to achieve equilibrium. After incubation, reactions were terminated by rapid vacuum filtration through Whatman GF/B glass fiber filters (Brandel; Gaithersburg, MD, USA), followed by three washes of 4 mls of ice-cold filtration buffer (50 mM Tris, pH 7.4, and 0.05% bovine serum albumin). Samples were punched out from filter papers into scintillation vials, to which 4 mls of ScintiverseTM-BDR cocktail scintillation fluid (Fisher Scientific; Hampton, NH, USA) was added. Filters were incubated at room temperature for 24 h in scintillation fluid, vortexed, and radioactivity (measured as DPMs) was quantified via a liquid scintillation spectrophotometer (Tri Carb 2100 TR Liquid Scintillation Analyzer, Packard Instruments, Meriden, CT, USA).

[5] = system: CBRs expressed in DU-145 cells; type: cell-based, human
Protocol: as §3, §4

[6] = 1 μM ligand, 1 nM radioligand, PC-3 membranes

| Compound | LDH release (DU-145 cells) | increase in LDH release (DU-145 cells) | displacement of [^3H]WIN-55,212-2 [1, 6] | displacement of [^3H]WIN-55,212-2 ([2]; 1 μM ligand, 1 nM radioligand, DU-145 membranes) | modulation of [^35S]GTPγS binding [3] | CBR downregulation (reduction of [^3H]WIN-55,212-2 (1 nM) binding) ([4]; PC-3 cells, 10 μM, 48 h, vs vehicle) | CBR downregulation (reduction of [^3H]WIN-55,212-2 (1 nM) binding) ([5]; DU-145 cells, 10 μM, 48 h, vs vehicle) | attenuation of GW-405833 (50 μM)-induced LDH release (DU-145 cells; co-incubation with 10 μM ligand) | displacement of [^3H]WIN-55,212-2 [2] | CBR downregulation (reduction of [^3H]WIN-55,212-2 (1 nM) binding) [4] | CBR downregulation (reduction of [^3H]WIN-55,212-2 (1 nM) binding) [5] | displacement of [^3H]WIN-55,212-2 [1] |
| --- | --- | --- | --- | --- | --- | --- | --- | --- | --- | --- | --- | --- |
| Cc1c(C(=O)c2cccc3ccccc23)c2cccc3c2n1[C@H](CN1CCOCC1)CO3 [WIN-55,212-2] | neither low (10 μM) nor high (50 μM) concentrations of WIN-55,212-2, AM-251 or AM-630 altered LDH release | neither low (10 μM) nor high (50 μM) concentrations of WIN-55,212-2, AM-251 or AM-630 altered LDH release | significantly displaced; also recorded: complete displacement | significantly displaced; also recorded: complete displacement | neither the agonist at canonical CB1/CB2 receptors WIN-55-212-2 (10 μM) nor the CB2-selective agonist GW-405-833 (10 μM) increased [^35S]GTPγS binding | 84.33 ± 5.2% | 88.45 ± 5.22% |  |  |  |  |  |
| Cc1c(C(=O)NN2CCCCC2)nn(-c2ccc(Cl)cc2Cl)c1-c1ccc(Cl)cc1 [rimonabant] | No significant effects | 16.5 ± 3.5% | greater than 50% |  | did reduce [^35S]GTPγS binding below basal levels |  |  | almost completely blocked GW-405833 induced LDH release | greater than 50% | non-significant trend towards decreased receptor expression | 63.75 ± 15.5% |  |
| COc1ccc2c(c1)c(CCN1CCOCC1)c(C)n2C(=O)c1cccc(Cl)c1Cl [GW-405833] | No significant effects | 74.2 ± 4.5% |  |  | neither the agonist at canonical CB1/CB2 receptors WIN-55-212-2 (10 μM) nor the CB2-selective agonist GW-405-833 (10 μM) increased [^35S]GTPγS binding |  |  |  | greater than 50% | 68.33 ± 3.8% | 55 ± 12.5% | greater than 50% |
